Measurements from EP1101492A1, “NOVEL REMEDIES FOR ALLERGIC DISEASES” (FUJI YAKUHIN KOGYO KABUSHIKI KAISHA, priority 1998, dated 2000).

Columns and labels:
[1] = system: guinea pig experimental bronchial asthma models; experiment: Experimental bronchial asthma model (ovalbumin inhalation): airway resistance and asthmatic death; conditions: prednisolone 10 mg/kg orally;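 further: female Std:Hartley guinea pigs sensitized by inhaling nebulized ovalbumin once daily for 8 consecutive days, 8 to 11 animals per group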
Protocol: Guinea pigs (female, Std:Hartley, 3 weeks old, 200 to 250 g) were individually housed in a plastic chamber (width, 200 mm; depth, 300 mm; height, 167 mm). Aqueous ovalbumin (10 mg/mL) was administered to the guinea pigs once a day for sensitization by 10 min. inhalation with a nebulizer (5B, Nippon Shoji K.K.: flow rate, 6 L/min.) at a dose of 10 mg/mL during 8 cosecutive days. On Day 7 after the final sensitization, the guinea pigs were housed in a plastic chamber and inhaled using a nebulizer with a solution of ovalbumin (10 mg/mL) in physiological saline for 1 min. for elicitation (Matsumoto, T., et al., The Journal of Pharmacology and Experimental Therapeutics, 269: 1236-1244, 1994). The number of animals employed in the experiment was set to the extent there are at least 6 as individuals escaping asthmatic death. A solution of a test compound (Compound No. 130, 15 mg/kg) in water for injection was administered subcutaneously twice, i.e., 24 hours and 2 hours prior to elicitation. Similarly, the solvent alone was also administered to a negative control group. A suspension of prednisolone (10 mg/kg) in 0.5% aqueous methyl cellulose was administered orally twice, i.e., 24 hours and 2 hours prior to elicitation. Similarly, the solvent alone was also administered to another control group.
The evaluation for efficacies was conducted in terms of airway resistance. For this purpose, an apparatus dedicated to the measurement of airway resistance (K.K. Medical Agent) was employed. Measurement includes setting a guinea pig in a test chamber under a not-anesthetized condition, applying sinusoidal pressure waves of 30 Hz components to a part below the neck of the animal from the back side of the chamber, measuring respiratory waves of 30 Hz components leaking through the mouth (volume of 30 Hz air flow passing through the respiratory tract) in front of the neck, and calculating airway resistance mechanically. Measurement was carried out immediately prior to the first drug treatment (24 hours before elicitation), just prior to elicitation, 10 minutes, 1, 2, 4, 6, and 8 hours post-elicitation.
It was visually observed by a person carrying out said test in terms, of the appearance of cyanosis or suffocative death (asthmatic death) due to respiratory obstruction.
Guinea pigs were sensitized with ovalbumin and asthma was induced on Day 7 after final sensitization in the same manner as in Example 20. The number of animals employed in the experiment was set to the extent there are at least 6 as individuals escaping asthmatic death (8 to 11 animals/group). In the same manner as in Example 20, the animals were measured for airway resistance mechanically and each percent change (%) in airway resistance was calculated (each value just prior to elicitation was set as 100%). Each percent amelioration in airway resistance was calculated from the percent changes in airway resistance according to the following formula: Amelioration in Airway Resistance (%) = 1 -[((Percent Change in Airway Resistance after Drug-Administration) - (Value just prior to Challenge (100)))/((Percent Change in Airway Resistance after Solvent-Administration) - (Value just prior to Challenge (100)))]× 100 [formula]

Body weight gain in mice = conditions: test compounds 60 mg/kg s.c., prednisolone 10 mg/kg i.p., once a day for 6 days (Days 0-5), average ± standard deviation; for Body Weight Gain, Observation Day 5: non-administered 0.50± 0.23; for Body Weight Gain, Observation Day 7: non-administered 0.80± 0.48; for Body Weight Gain, Observation Day 10: non-administered 1.07± 0.58
Protocol: Accordingly, for assessing the side-effect each of the following test compounds an action on body weight gains was examined.
Next the mice were measured for their body weight. Each body weight gain was calculated on Days 5, 7 and 10 post-administration based on the body weight just prior to administration.

[2] = Body weight gain in sensitized mice; assay type: in vivo; conditions: test compound 50 µg/ear/dose, prednisolone 5 µg/ear/dose, in ethanol painted twice a day, Days 1, 4 and 7, vs solvent control (ethanol)
Protocol: Experimental atopic dermatitis model mice sensitized in the same manner as in Example 1 were examined for influence on body weight gains.
Each mouse was measured for its body weight not only immediately before the start in painting but also on Days 1, 4 and 7 after the start in painting. Each gain in body weight was calculated and considered to indicate an effect on body weight changes affected by said treatments.

[3] = system: mouse experimental atopic dermatitis models; experiment: Auricle edema in experimental atopic dermatitis model (anti-DNP IgE sensitization, DNFB elicitation); assay type: in vivo, Balb/c mice; conditions: for % Inhibition IPR: auricle edema 1 hour post-elicitation; for % Inhibition IPR / % Inhibition LPR / % Inhibition vLPR: test compounds 60 mg/kg s.c., prednisolone 10 mg/kg i.p.; for % Inhibition IPR / % Inhibition LPR: once a day, 24 & 2 hours prior to DNFB-elicitation, vs untreated group; for % Inhibition LPR: auricle edema Day 1 post-elicitation; for % Inhibition vLPR: auricle edema Day 7 post-elicitation
Protocol: Intravenous injection of an anti-2,4-dinitrophenol (DNP) antibody (anti-DNP Ab, monoclonal IgE Ab; its antibody titer was 1 : 512 to 1 : 1024 by a rat heterologous passive cutaneous anaphylaxis reaction using a Wister rat) into a tail vein of female Balb/c mice (7-week old, body weight: 17 to 20 g, purchased from JAPAN SLC, Inc.) at a dose of […] per animal raised passive sensitization. Twenty four hours post-sensitization, 0.1% 2,4-dinitrofluorobenzene (DNFB; Nacalai Tesque, Inc.) in ethanol was painted onto both sides of a pair of mouse auricles at a dose of 10µL per each side for elicitation.
Fresh unsensitized mice were painted with 0.1% DNFB in ethanol onto their ear in the same manner as aforementioned and served as a control group. Not only immediately prior to elicitation but also 1 hour, 5 hours, daily between Days 1 and 14, and on Day 16 post-elicitation, ear thickness was measured using a dial thickness gauge (Peacock Co.). Each degree of auricle edemas was calculated: Auricular Edema (µm)=(Ear Thickness Post-Elicitation, µm) - (Ear Thickness immediately prior to Elicitation, µm) [formula]
Balb/c mice were passively sensitized with anti-DNP IgE Ab in the same manner as in Example 1. Twenty four hours later, 0.1% DNFB in ethanol was painted onto both sides of a pair of mouse auricles at a dose of 10 µL per each side for elicitation.
Immediately prior to elicitation, 1 hour and on Day 1 post-elicitation, auricle thickness was measured in the same manner as in Example 1. Each therapeutic efficacy is recorded as a percent inhibition wherein the "auricle edema (untreated group)" is used as a control. Auricle Edema Inhibition (%) = [ 1 -(Auricle Edema (Treated Group))/(Auricle Edema (Untreated Group))] × 100 (%) [formula]
Immediately prior to elicitation, and on Day 7 post-elicitation, auricle thickness was similarly measured. Each therapeutic efficacy is recorded as a percent inhibition wherein the auricle edema in the untreated group is used as a control.
Immediately prior to elicitation, and on Day 7 post-elicitation, auricle thickness was similarly measured. Each therapeutic efficacy is recorded as a percent inhibition wherein the auricle edema (untreated group) is used as a control.
Immediately prior to elicitation, at 1 and 4 hours and on Days 1, 3 and 7 post-elicitation, auricle thickness was similarly measured. From each auricle edema (µm) based on the auricle thickness immediately prior to elicitation, especially a prophylactically therapeutic efficacy of the test compound was evaluated.
Immediately prior to elicitation, at 0.5, 1 and 4 hours and on Days 1, 3 and 7 post-elicitation, auricle thickness was similarly measured. Each amount of auricle edemas was calculated (average± standard deviation).

IgE = experiment: Serum IgE level in sensitized and DNFB-elicited mice (ELISA); assay type: in vivo, Balb/c mice; conditions: 100 µg/ear in ethanol painted twice a day, 1 hour pre-elicitation, 0.25, 4, 5 and 6 days post-elicitation; serum 7 days post-elicitation; average ± standard deviation; untreated 34.55 ± 8.89, healthy 11.79 ± 2.35
Source text: Ethanol alone was also painted onto both sides of a mouse left auricle. […] Blood was also drawn from unsensitized healthy mice and untreated mice and treated to give serum samples. Seven days post-elicitation, blood samples were drawn by cardiac puncture using a syringe treated with heparin, and then centrifuged to give serum samples.
A dilution of polyclonal goat anti-mouse IgE antibody (Bethyl Laboratories, Inc.; 500-fold dilution) in 0.1 M sodium carbonate-sodium bicarbonate buffer (pH 9.6) was added to each well of a 96-well microtest plate (MaxiSorp, Nunc, Inc.) at a rate of 100 µL/well and the resultant microtest plates were allowed to stand at about 4°C overnight in a refrigerator. Each well was rinsed 3 times with phosphate buffer (pH 7.4) containing 0.05% Tween 20. Next, 0.1 M sodium carbonate-sodium bicarbonate buffer (pH 9.6) containing 1 % bovine serum albumin was added to each well at a rate of 100 µL/well. The resultant microtest plates were allowed to stand at room temperature for 1 hour and washed 3 times. Thereafter, 2-fold serial dilutions of mouse serum samples were poured into each well of microtest plates at 100 µL/well, which was subjected to an antigen-antibody reaction at 4°C for 2 hours. […] The resultant enzymatic reaction products were measured at 405 nm.

[4] = asthmatic death due to cyanosis within several minutes after elicitation, Compound No. 130 15 mg/kg s.c., 24 and 2 hours prior to elicitation
[5] = test compounds 15 mg/kg s.c. (Compound No. 114: 30 mg/kg), 24 and 2 hours prior to elicitation, vs solvent control
[6] = daily from 3 to 6 days after DNFB-elicitation
[7] = daily from 1 day prior to through 5 days after DNFB-elicitation

## C[C@]12C=CC(=O)C=C1CC[C@@H]1[C@@H]2[C@@H](O)C[C@@]2(C)[C@H]1CC[C@]2(O)C(=O)CO [Prednisolone, reference compound]
[1]; [4]
  % Mortality: 22.2%
  (Dead Animals)/(Tested Animals): 2/9
[1]; asthmatic death within several minutes after elicitation, test compounds 15 mg/kg s.c. (Compound No. 114: 30 mg/kg), water for injection 54.5, 0.5% methyl cellulose 66.7
  % Survival: 75.0%
[1]; [5]
  % Amelioration in Airway Resistance, 1 Hour after Elicitation: 23.6%
  % Amelioration in Airway Resistance, 6 Hours after Elicitation: 14.8%
  % Amelioration in Airway Resistance, Immediately after Elicitation: 11.5%
Body weight gain in mice
  Body Weight Gain, Observation Day 5: 0.00± 0.26
  Body Weight Gain, Observation Day 7: 0.03± 0.57
  Body Weight Gain, Observation Day 10: 0.97± 0.47
[2]
  gain in body weight (FIG. 10): below that in the solvent control group
[3]
  % Inhibition IPR: 36.8%
  % Inhibition LPR: 29.9%
[3]; [6]
  % Inhibition vLPR: 24.8%
[3]; [7]
  % Inhibition vLPR: 24.8%

## CC(=N)NCCCC[C@H](NC(=O)[C@H](CC(C)C)C(CCCc1ccccc1)C(=O)NO)C(=O)NCCN(C)C.CC(=O)O.CC(=O)O (mixture of isomers) [Compound No. 44, N^a-[4-(Hydroxyamino)-2(R)-isobutyl-3(RS)-(3-phenylpropyl)succinyl]-N^e-acetimidoyl-L-lysine N-(2-N',N'-dimethylaminoethyl)amide · 2 acetate]
IgE
  Serum IgE Level: 26.70 ± 10.88 ng/mL
Body weight gain in mice
  Body Weight Gain, Observation Day 5: 0.80± 0.30
  Body Weight Gain, Observation Day 7: 1.08± 0.57
  Body Weight Gain, Observation Day 10: 1.23± 0.56
[3]; 150 mg/kg orally once a day, compared to solvent control group, IPR 1 hour, LPR 1 day, vLPR 7 days
  inhibitory efficacy on IgE-mediated auricle edema (FIG. 8): not only an inhibitory activity on the development of edemas in both IPR and LPR but also a remarkably strong inhibitory activity in vLPR
[3]
  % Inhibition IPR: 43.9%
  % Inhibition LPR: 43.6%
[3]; [6]
  % Inhibition vLPR: 65.6%
[3]; [7]
  % Inhibition vLPR: 22.0%
